According to publication PMC5811606, “Characterization of ^111In-labeled Glucose-Dependent Insulinotropic Polypeptide as a Radiotracer for Neuroendocrine Tumors” (Scientific Reports, 2018):
Where two headings read alike, the source gives them in different places.

Test: Peptide dose escalation study, BHK-GIPR tumor mice
Format: in vivo, BALB/c nude mice
Details: female, mouse, iv, total radioactivity, BHK-GIPR tumor BALB/c nude mice, i.v., 4 h p.i., mean n=5
Method: All animal experiments were approved by the Animal Welfare Body of the Radboud University, Nijmegen, The Netherlands and carried out in accordance with their guidelines. Six to eight weeks old, female BALB/c nude mice and C3H mice were purchased from Janvier labs (Le Genest Saint Isle, France). For all in vivo experiments, 6-8 weeks old female BALB/c nude mice were injected subcutaneously in the right shoulder with 0.2 ml of a 2.5 × 10^7 cells/ml suspension of BHK-GIPR transfected cells or with 0.2 ml of a 2.5 × 10^7 cells/ml suspension of NES2Y cells mixed with matrigel (2:1) in the right shoulder. When the tumor reached a diameter of 2-5 mm, mice were randomly divided in groups.
To determine the optimal peptide dose of [Lys^37(DTPA)]N-acetyl-GIP1-42, BHK-GIPR transfected tumor bearing BALB/c nude mice (n = 5/group) were injected intravenously with approximately 3 MBq [Lys^37(^111In-DTPA)]N-acetyl-GIP1-42 (0.05 µg) in the tail vein and were co-injected with escalating amounts of unlabeled [Lys^37(DTPA)]N-acetyl-GIP1-42 (0.05 µg – 1.95 µg), resulting in final peptide doses ranging from 0.1 to 2 µg/mouse (0.02 – 0.4 nmol/mouse) (5 groups, n = 5/group). Four hours after injection, mice were euthanized by CO2/O2 suffocation and tumors and other relevant tissues (heart, muscle, lung, spleen, pancreas, kidney, liver, stomach and duodenum) were dissected, weighed and measured in a well type gamma counter. The percentage injected dose per gram of tissue (%ID/g) was determined for each tissue.

Work on `CC[C@H](C)[C@H](NC(=O)[C@H](CO)NC(=O)[C@H](Cc1ccc(O)cc1)NC(=O)[C@H](CC(=O)O)NC(=O)[C@H](CO)NC(=O)[C@@H](NC(=O)[C@H](Cc1ccccc1)NC(=O)[C@@H](NC(=O)CNC(=O)[C@H](CCC(=O)O)NC(=O)[C@H](C)NC(=O)[C@H](Cc1ccc(O)cc1)NC(C)=O)[C@@H](C)O)[C@@H](C)CC)C(=O)N[C@@H](C)C(=O)N[C@@H](CCSC)C(=O)N[C@@H](CC(=O)O)C(=O)N[C@@H](CCCCN)C(=O)N[C@H](C(=O)N[C@@H](Cc1c[nH]cn1)C(=O)N[C@@H](CCC(N)=O)C(=O)N[C@@H](CCC(N)=O)C(=O)N[C@@H](CC(=O)O)C(=O)N[C@@H](Cc1ccccc1)C(=O)N[C@H](C(=O)N[C@@H](CC(N)=O)C(=O)N[C@@H](Cc1c[nH]c2ccccc12)C(=O)N[C@@H](CC(C)C)C(=O)N[C@@H](CC(C)C)C(=O)N[C@@H](C)C(=O)N[C@@H](CCC(N)=O)C(=O)N[C@@H](CCCCN)C(=O)NCC(=O)N[C@@H](CCCCN)C(=O)N[C@@H](CCCCN)C(=O)N[C@@H](CC(N)=O)C(=O)N[C@@H](CC(=O)O)C(=O)N[C@@H](Cc1c[nH]c2ccccc12)C(=O)N[C@@H](CCCCNC(=O)CN(CCN(CCN(CC(=O)O)CC(=O)O)CC(=O)O)CC(=O)O)C(=O)N[C@@H](Cc1c[nH]cn1)C(=O)N[C@@H](CC(N)=O)C(=O)N[C@H](C(=O)N[C@H](C(=O)N[C@@H](CCC(N)=O)C(=O)O)[C@@H](C)O)[C@@H](C)CC)C(C)C)[C@@H](C)CC` [[Lys^37(^111In-DTPA)]N-acetyl-GIP1-42, metal not drawn] yielded a tissue uptake at 4 h (pancreas, 0.1 ug/mouse, peptide dose 0.1 µg, read-out: Pancreas uptake) of 0.169 %ID/g, a tissue uptake at 4 h (pancreas, 0.2 ug/mouse, peptide dose 0.2 µg, read-out: Pancreas uptake) of 0.234 %ID/g and a tissue uptake at 4 h (pancreas, 0.5 ug/mouse, peptide dose 0.5 µg, read-out: Pancreas uptake) of 0.199 %ID/g. The tissue uptake at 4 h (pancreas, 1 ug/mouse, peptide dose 1 µg, read-out: Pancreas uptake) was 0.257 %ID/g, the tissue uptake at 4 h (pancreas, 2 ug/mouse, peptide dose 2 µg, read-out: Pancreas uptake) was 0.213 %ID/g and the tissue uptake at 4 h (spleen, 0.1 ug, peptide dose 0.1 µg, read-out: Spleen uptake) was 0.648 %ID/g. For the same molecule, the tissue uptake at 4 h (spleen, 0.2 ug, peptide dose 0.2 µg, read-out: Spleen uptake) was 0.692 %ID/g, the tissue uptake at 4 h (spleen, 0.5 ug, peptide dose 0.5 µg, read-out: Spleen uptake) was 0.594 %ID/g and the tissue uptake at 4 h (spleen, 1 ug, peptide dose 1 µg, read-out: Spleen uptake) was 0.781 %ID/g. For the same molecule, the tissue uptake at 4 h (spleen, 2 ug, peptide dose 2 µg, read-out: Spleen uptake) was 0.713 %ID/g, the tissue uptake at 4 h (stomach, 0.1 ug/mouse, peptide dose 0.1 µg, read-out: Stomach uptake) was 0.41 %ID/g and the tissue uptake at 4 h (stomach, 0.2 ug/mouse, peptide dose 0.2 µg, read-out: Stomach uptake) was 0.418 %ID/g. For the same molecule, the tissue uptake at 4 h (stomach, 0.5 ug/mouse, peptide dose 0.5 µg, read-out: Stomach uptake) was 0.411 %ID/g, the tissue uptake at 4 h (stomach, 1 ug/mouse, peptide dose 1 µg, read-out: Stomach uptake) was 0.527 %ID/g and the tissue uptake at 4 h (stomach, 2 ug/mouse, peptide dose 2 µg, read-out: Stomach uptake) was 0.437 %ID/g. It also gave a tissue to tissue ratio at 4 h (tumor/blood, 2 ug/mouse, peptide dose 2 µg, read-out: Tumor/Blood) of 38, a tissue to tissue ratio at 4 h (tumor/heart, 0.1 ug/mouse, peptide dose 0.1 µg, read-out: Tumor/Heart) of 35.6 and a tissue to tissue ratio at 4 h (tumor/heart, 0.2 ug/mouse, peptide dose 0.2 µg, read-out: Tumor/Heart) of 33.1. It also gave a tissue to tissue ratio at 4 h (tumor/heart, 0.5 ug/mouse, peptide dose 0.5 µg, read-out: Tumor/Heart) of 14.6, a tissue to tissue ratio at 4 h (tumor/heart, 1 ug/mouse, peptide dose 1 µg, read-out: Tumor/Heart) of 16.4 and a tissue to tissue ratio at 4 h (tumor/heart, 2 ug/mouse, peptide dose 2 µg, read-out: Tumor/Heart) of 11.2. The tissue to tissue ratio at 4 h (tumor/kidney, 0.1 ug/mouse, peptide dose 0.1 µg, read-out: Tumor/Kidney) was 0.02, the tissue to tissue ratio at 4 h (tumor/kidney, 0.2 ug/mouse, peptide dose 0.2 µg, read-out: Tumor/Kidney) was 0.019 and the tissue to tissue ratio at 4 h (tumor/kidney, 0.5 ug/mouse, peptide dose 0.5 µg, read-out: Tumor/Kidney) was 0.011. For the same molecule, the tissue to tissue ratio at 4 h (tumor/kidney, 1 ug/mouse, peptide dose 1 µg, read-out: Tumor/Kidney) was 0.01, the tissue to tissue ratio at 4 h (tumor/kidney, 2 ug/mouse, peptide dose 2 µg, read-out: Tumor/Kidney) was 0.008 and the tissue to tissue ratio at 4 h (tumor/lung, 0.1 ug/mouse, peptide dose 0.1 µg, read-out: Tumor/Lung) was 13. For the same molecule, the tissue to tissue ratio at 4 h (tumor/lung, 0.2 ug/mouse, peptide dose 0.2 µg, read-out: Tumor/Lung) was 10, the tissue to tissue ratio at 4 h (tumor/lung, 0.5 ug/mouse, peptide dose 0.5 µg, read-out: Tumor/Lung) was 4.18 and the tissue to tissue ratio at 4 h (tumor/lung, 1 ug/mouse, peptide dose 1 µg, read-out: Tumor/Lung) was 4.81. For the same molecule, the tissue to tissue ratio at 4 h (tumor/lung, 2 ug/mouse, peptide dose 2 µg, read-out: Tumor/Lung) was 3.58, the tissue to tissue ratio at 4 h (tumor/muscle, 0.1 ug/mouse, peptide dose 0.1 µg, read-out: Tumor/Muscle) was 33.7 and the tissue to tissue ratio at 4 h (tumor/muscle, 0.2 ug/mouse, peptide dose 0.2 µg, read-out: Tumor/Muscle) was 41.1. The tissue to tissue ratio at 4 h (tumor/muscle, 0.5 ug/mouse, peptide dose 0.5 µg, read-out: Tumor/Muscle) was 19.1, the tissue to tissue ratio at 4 h (tumor/muscle, 1 ug/mouse, peptide dose 1 µg, read-out: Tumor/Muscle) was 20.9 and the tissue to tissue ratio at 4 h (tumor/muscle, 2 ug/mouse, peptide dose 2 µg, read-out: Tumor/Muscle) was 12.2.
